Results on eleven molecules are retold here after patent publication US11013728B2, “Cyclin-dependent kinase 8 and/or 19 inhibitor” (Kyoto Pharmaceutical Industries, Ltd., priority 2017, dated 2021).

Test [1] concerns human acute myeloid leukemia MV4; 11. Put plainly: MV4;11 cell proliferation inhibitory activity (CellTiter 96 Aqueous One). The test is classed as cell-based. To be noted: 72 h, MV4;11 cells, cultured 3 days, read-out: cell proliferation inhibitory rate. On the procedure:
The human acute myeloid leukemia MV4; 11 cell proliferation inhibitory activity of compound (I) of the present invention was evaluated by the following method.
A cell suspension (100 μL, 10,000 cells/well) of human acute myeloid leukemia MV4; 11 (purchased from American Type Culture Collection) was seeded on a 96 well plate and cultured in a 5% carbon dioxide gas incubator at 37° C. for one day. After the above-mentioned culture, each test compound (compound (I)) was added to a concentration of 1 μM and the mixture was further cultured for 3 days. After the above-mentioned culture, 40 μL of CellTiter 96 (registered trade mark) Aqueous One Solution Cell Proliferation Assay (Promega KK) was added to the 96 well-plate, the mixture was reacted for 3 hr, and the absorbance (490 nm) was measured by a plate reader.
Using the absorbance of the test compound non-addition well as a control and the absorbance of the cell non-seeded well as a blank, the cell proliferation inhibitory rate was determined at 1 μM of each test compound.

The target of the next test is T1, CDK19 (Homo sapiens, UniProt Q9BWU1).
T1 construct: purchased Carna Bioscience
T1 sequence (Q9BWU1 whole entry): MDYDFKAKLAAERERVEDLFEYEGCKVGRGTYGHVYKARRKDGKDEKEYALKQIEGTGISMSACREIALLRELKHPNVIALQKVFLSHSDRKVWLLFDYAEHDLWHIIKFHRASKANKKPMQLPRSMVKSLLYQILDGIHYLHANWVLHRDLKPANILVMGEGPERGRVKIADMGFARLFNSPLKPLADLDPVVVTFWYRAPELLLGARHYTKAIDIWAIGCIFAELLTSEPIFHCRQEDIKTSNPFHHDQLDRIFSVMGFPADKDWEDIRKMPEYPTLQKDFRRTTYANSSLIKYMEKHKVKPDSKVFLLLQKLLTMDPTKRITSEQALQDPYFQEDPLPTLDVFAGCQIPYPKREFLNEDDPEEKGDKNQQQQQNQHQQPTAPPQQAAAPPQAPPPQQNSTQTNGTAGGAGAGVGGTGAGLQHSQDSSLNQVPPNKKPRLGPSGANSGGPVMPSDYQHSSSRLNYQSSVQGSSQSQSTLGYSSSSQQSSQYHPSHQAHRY
T1 sequence (P24863 whole entry partner): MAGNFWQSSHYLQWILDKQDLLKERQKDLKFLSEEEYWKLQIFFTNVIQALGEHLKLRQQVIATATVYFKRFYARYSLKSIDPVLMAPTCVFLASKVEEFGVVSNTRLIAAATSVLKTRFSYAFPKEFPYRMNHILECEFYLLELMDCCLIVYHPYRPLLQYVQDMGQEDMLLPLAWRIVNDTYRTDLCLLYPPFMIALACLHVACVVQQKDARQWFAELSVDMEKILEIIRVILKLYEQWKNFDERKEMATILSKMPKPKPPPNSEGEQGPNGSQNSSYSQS
Briefly: CDK19 inhibitory activity, ELISA kinase assay. The test is classed as biochemical. Conditions: at 1 μM of test compound; read-out: CDK19 inhibitory rate. The procedure:
The test compound (compound (I)) dissolved in DMSO was diluted with an assay buffer (QSS Assist STK ELISA Kit (CDK8/CycC), Carna Bioscience) to give a primary dilution solution with a DMSO concentration of 40%. The above-mentioned primary dilution solution (10 μL) was dispensed in a streptavidin-coated 96 well plate, and an assay buffer mixture (10 μL) containing 500 nM substrate (Carna Bioscience), 10 mM MgCl2 (Carna Bioscience) and 100 μM ATP (Carna Bioscience) was added. After the above-mentioned addition, 10 μL of a kinase solution was added (1 ng/μL CDK8/CycC (Carna Bioscience) diluted with assay buffer is used for measurement of CDK8 inhibitory activity and for 5 ng/μL […] (Carna Bioscience) diluted with assay buffer is used for measurement of CDK19 inhibitory activity). After the above-mentioned addition, the mixture was stood in an incubator at 24-26° C. for 30 min. […] The reaction was quenched by adding a color developing reaction termination drug (Nacalai Tesque) (100 μL) to each well, and the absorbance (450 nm) was measured by a plate reader.
Using the absorbance of the test compound non-addition well as a control and the absorbance of the enzyme non-addition well as a blank, the CDK8 and CDK19 inhibitory rate was determined at 1 μM of each test compound.
For orientation: In an ELISA, binding on a coated surface is turned into a signal by an enzyme label.

Test [2] relates to 39 kinds of serine/threonine kinase. Briefly: Off-chip Mobility Shift Assay (MSA), serine/threonine kinase panel. To be noted: test compound 1 μM; 39 kinases listed in b243 (AKT1 ... TSSK1, incl. CDK2, 3, 4, 5, 6, 7, 9). The test is classed as biochemical. The procedure:
The action of compound (I) of the present invention on serine/threonine kinase activity was examined by Off-chip Mobility Shift Assay (MSA). The method is shown below.
The action of a test compound (1 μM) on 39 kinds of serine/threonine kinase activity was examined. A solution of 4-fold concentration of compound 32 (5 μL) prepared by using an assay buffer (20 mM HEPES, 0.01% Triton X-100, 2 mM DTT, pH 7.5), a substrate/ATP/metal solution (5 μL) and a kinase […] solution (10 μL) were mixed in a well of a polypropylene 384 well plate and the mixture was reacted at room temperature for 1 or 5 hr. The reaction was discontinued by adding 70 μL of Termination Buffer (Carna Biosciences). The substrate peptide and phosphorylated peptide in the reaction solution were separated and quantified by LabChip System (Perkin Elmer).
The kinase reaction was evaluated based on a resultant product ratio (P/(P+S)) calculated from substrate peptide peak height (S) and phosphorylated peptide peak height (P).

The next test relates to various cancer cells. To be noted: reported in non-patent document 3; remarkable effects on leukemia cells; cited from earlier work.

`NC(=O)c1ccc([N+](=O)[O-])c(Nc2ccc(N3CC(OCCO)C3)cc2)c1` [Compound 5, 3-{4-[3-(2-hydroxyethoxy)azetidin-1-yl]phenylamino}-4-nitrobenzamide]: the inhibition at 1 µM in test [1] is at least 50%.
For `CC(=O)c1ccc(C(N)=O)cc1Oc1ccc(N2CC(OCCO)C2)cc1` [Compound 28, 4-acetyl-3-{4-[3-(2-hydroxyethoxy)azetidin-1-yl]phenoxy}benzamide], the inhibition at 1 µM in test [1] is at least 50%.
On to `CC(=O)c1ccc(C(N)=O)cc1Oc1ccc(OCCOC2CCOCC2)cc1` [Compound 32, 4-acetyl-3-{4-[2-(tetrahydropyran-4-yloxy)ethoxy]phenoxy}benzamide], for which the inhibition at 1 µM is at least 50% in test [1] and at least 90% at CDK19. Also, in test [2], the “action on serine/threonine kinase activity” value is listed as “did not affect”.
Regarding `CC(=O)c1ccc(C(N)=O)cc1Oc1ccc(OCCOCCOC(C)C)cc1` [Compound 33, 4-acetyl-3-{4-[2-(2-isopropoxyethoxy)ethoxy]phenoxy}benzamide], the inhibition at 1 µM in test [1] is at least 50%.
Regarding `C[C@@H](O)c1ccc(C(N)=O)cc1Oc1ccc(OCCOC2CCOCC2)cc1` [Compound 43], the inhibition at 1 µM on CDK19 was at least 90%.
As to `CNC(=O)c1ccc([N+](=O)[O-])c(Nc2ccc(N3CC(OCCO)C3)cc2)c1` [Compound 48, 3-{4-[3-(2-hydroxyethoxy)azetidin-1-yl]phenylamino}-N-methyl-4-nitrobenzamide], the inhibition at 1 µM in test [1] is at least 50%.
Still for that read-out and setting: the figure for `NC(=O)c1ccc([N+](=O)[O-])c(Nc2ccc(OCCOC3CCOCC3)cc2)c1` [Compound 50, 4-nitro-3-{4-[2-(tetrahydropyran-4-yloxy)ethoxy]phenylamino}benzamide] is at least 50%; for `NC(=O)c1ccc(C(F)(F)F)c(Oc2ccc(OCCOC3CCOCC3)cc2)c1` [Compound 64, 3-{4-[2-(tetrahydropyran-4-yloxy)ethoxy]phenoxy}-4-trifluoromethylbenzamide] it is at least 50%.
The same measure, in the same setting: the value for `CC(=O)c1ccc(C(N)=O)cc1Oc1ccc(OCCOC2CCOC2)cc1` (stereo not shown) [Compound 67, 4-acetyl-3-{4-[2-(tetrahydrofuran-3-yloxy)ethoxy]phenoxy}benzamide] was at least 50%; that for `C=C(F)c1ccc(C(N)=O)cc1Oc1ccc(OCCOC2CCOCC2)cc1` [Compound 84, 4-(1-fluorovinyl)-3-{4-[2-(tetrahydropyran-4-yloxy)ethoxy]phenoxy}benzamide] was at least 50%.
In the case of Cortistatin A, the “proliferation of various cancer cells” value in the test with various cancer cells was “suppresses proliferation”.
